Values joined by “and” are separate entries in the source; they are usually repeats but may differ in a detail not shown here. Identical values can stand only once. Counter-ions that a name gives are not always drawn. Like-named read-outs stand apart in the source and are kept apart here.
System: 60 cancer cell lines (NCI 60 cancer cell line series)
Assay: NCI-DTP in vitro cancer screen, sulforhodamine B (SRB) growth inhibition, 48 hour exposure
Format: cell-based, human
Design: key to sensitivity class Ovarian OVCAR-8 CL6005 / sensitivity class Ovarian SK-OV-3 CL6011 / sensitivity class Prostate DU-145 CL11003 / sensitivity class NSCLC NCI-H522 CL1003 / sensitivity class Ovarian IGROV1 CL6010 / sensitivity class Ovarian OVCAR-4 CL6002 / sensitivity class Prostate PC-3(I) CL11001 / sensitivity class Renal A498 CL9013 / sensitivity class Renal SN12C CL9008: sensitivity class: 1 = Low, 2 = Medium, 3 = High
Procedure: Cancer Cell Line Preparation. Sixty cancer cell lines were obtained from the National Cancer Institute Developmental Therapeutics Program (NCI-DTP). Procedures for growing cells and testing compounds have been described previously (Scudiero et al., Cancer Res. 1988, 48:4827-4833; Stinson et al., Anticancer Res.; Myers et al., Electrophoresis 1997, 18:647-653). Cells are plated on day 0 at a density individualized for each cell line so that they will generally be sub-confluent at the end of the assay period. On day 1, a compound is added in the format for a duplicate-well, 5-dose, ten-fold interval dose response study.
No-drug, no-cell and no-growth controls are included. On day 3 the cells are processed for staining with sulforhodamine B (SRB), which reflects the amount of cell mass present at the end of a 48 hour exposure to the test agent. From dose response curves based on the SRB data, various parameters can be determined. The one used in the present study is the G15o, defined as the concentration of compound required to inhibit growth of the cell line by 50%. More precisely, the quantity used in the calculation to be described is the potency measure -log{GI50}.
Activity database (A). Table IA, consisting of the growth inhibition (GI5o) values for the 60 cell lines and 24 compounds, was created from the NCI-DTP in vitro cancer screen database. This subset of compounds was selected from the larger 23,000 compound database available from the DTP. The compounds were selected on the basis of their known mechanism of action and chemical structure. The average potency—log{GI50} was extracted from the comma-delimited text files available through the Web at http://www.nci.nih.gov/intra/lmp/jnwbio.htmrl. Subsequently, these log{GI5o} values were inspected manually and classified as indicating either Low, Medium or High sensitivity to each compound.

## CC[C@]1(O)C[C@@H]2CN(CCc3c([nH]c4ccccc34)[C@@](C(=O)OC)(c3cc4c(cc3OC)N(C)[C@H]3[C@@](O)(C(=O)OC)[C@H](OC(C)=O)[C@]5(CC)C=CCN6CC[C@]43[C@@H]65)C2)C1 [Vinblastine sulfate]
CNS SF-539 CL12016
  classification of cell line as Low(1), Medium(2) or High(3) sensitivity to compound: 2
CNS SNB-19 (CL12002)
  classification of cell line as Low(1), Medium(2) or High(3) sensitivity to compound: 2
CNS U251(I) CL12009
  classification of cell line as Low(1), Medium(2) or High(3) sensitivity to compound: 2
Colon HCC-2998 (CL4002)
  classification of cell line as Low(1), Medium(2) or High(3) sensitivity to compound: 2
Colon HCT-15 CL4015
  classification of cell line as Low(1), Medium(2) or High(3) sensitivity to compound: 1
Colon KM12 (CL4017)
  classification of cell line as Low(1), Medium(2) or High(3) sensitivity to compound: 2
Colon SW-620 (CL4009)
  classification of cell line as Low(1), Medium(2) or High(3) sensitivity to compound: 2
Leukemia CCRF-CEM(I) (CL7003)
  classification of cell line as Low(1), Medium(2) or High(3) sensitivity to compound: 2
Leukemia HL-60(I) (CL7008)
  classification of cell line as Low(1), Medium(2) or High(3) sensitivity to compound: 3
Leukemia MOLT-4 (CL7006)
  classification of cell line as Low(1), Medium(2) or High(3) sensitivity to compound: 2
Leukemia SR CL7019
  classification of cell line as Low(1), Medium(2) or High(3) sensitivity to compound: 3
Melanoma M14 (CL10014)
  classification of cell line as Low(1), Medium(2) or High(3) sensitivity to compound: 2
Melanoma MALME-3M CL10002
  classification of cell line as Low(1), Medium(2) or High(3) sensitivity to compound: 2
Melanoma SK-MEL-2 (CL10005)
  classification of cell line as Low(1), Medium(2) or High(3) sensitivity to compound: 2
Melanoma SK-MEL-5 (CL10007)
  classification of cell line as Low(1), Medium(2) or High(3) sensitivity to compound: 3
Melanoma SK-MEL-28 (CL10008)
  classification of cell line as Low(1), Medium(2) or High(3) sensitivity to compound: 2
Melanoma UACC-62 (CL10020)
  classification of cell line as Low(1), Medium(2) or High(3) sensitivity to compound: 3
NSCLC A549/ATCC (CL1004)
  classification of cell line as Low(1), Medium(2) or High(3) sensitivity to compound: 2
NSCLC EKVX (CL1008)
  classification of cell line as Low(1), Medium(2) or High(3) sensitivity to compound: 1
NSCLC HOP-62 (CL1026)
  classification of cell line as Low(1), Medium(2) or High(3) sensitivity to compound: 2
NSCLC HOP-92 (CL1029)
  classification of cell line as Low(1), Medium(2) or High(3) sensitivity to compound: 2
NSCLC NCI-H226 CL1013
  classification of cell line as Low(1), Medium(2) or High(3) sensitivity to compound: 2
Cell line NSCLC NCI-H23(I), CL1001
  sensitivity class NSCLC NCI-H23(I) CL1001: 2
Cell line NSCLC NCI-H332M, CL1017
  sensitivity class NSCLC NCI-H332M CL1017: 2
Cell line NSCLC NCI-H460, CL1021
  sensitivity class NSCLC NCI-H460 CL1021: 2
Cell line NSCLC NCI-H522, CL1003
  sensitivity class NSCLC NCI-H522 CL1003: 3
Cell line Ovarian IGROV1, CL6010
  sensitivity class Ovarian IGROV1 CL6010: 2
Cell line Ovarian OVCAR-3, CL6001
  sensitivity class Ovarian OVCAR-3 CL6001: 3
Cell line Ovarian OVCAR-8, CL6005
  sensitivity class Ovarian OVCAR-8 CL6005: 2
Cell line Ovarian SK-OV-3, CL6011
  sensitivity class Ovarian SK-OV-3 CL6011: 2
Cell line Renal 786-O, CL9018
  sensitivity class Renal 786-O CL9018: 2
Cell line Renal CAKI-1, CL9015
  sensitivity class Renal CAKI-1 CL9015: 2
Cell line Renal RXF-393, CL9016
  sensitivity class Renal RXF-393 CL9016: 2
Cell line Renal SN12C, CL9008
  sensitivity class Renal SN12C CL9008: 2
Cell line Renal TK10, CL9024
  sensitivity class Renal TK10 CL9024: 1
Cell line Renal UO-31, CL9004
  sensitivity class Renal UO-31 CL9004: 1

## CC[C@]1(O)C[C@@H]2CN(CCc3c([nH]c4ccccc34)[C@@](C(=O)OC)(c3cc4c(cc3OC)N(C)[C@H]3[C@@](O)(C(=O)OC)[C@H](OC(C)=O)[C@]5(CC)C=CCN6CC[C@]43[C@@H]65)C2)C1 [Vinblastinesulfate]
Breast BT-549 (CL5013)
  classification of cell line as Low(1), Medium(2) or High(3) sensitivity to compound: 3
Breast HS-578T CL5006
  classification of cell line as Low(1), Medium(2) or High(3) sensitivity to compound: 3
Breast MCF7(I) (CL5001)
  classification of cell line as Low(1), Medium(2) or High(3) sensitivity to compound: 3
Breast MCF7/ADRr (CL5002)
  classification of cell line as Low(1), Medium(2) or High(3) sensitivity to compound: 1
Breast MDA-MB-231 CL5005
  classification of cell line as Low(1), Medium(2) or High(3) sensitivity to compound: 2
Breast MDA-MB-435 (CL5011)
  classification of cell line as Low(1), Medium(2) or High(3) sensitivity to compound: 3
Breast MDA-N CL5012
  classification of cell line as Low(1), Medium(2) or High(3) sensitivity to compound: 3
Breast T-47D (CL5014)
  classification of cell line as Low(1), Medium(2) or High(3) sensitivity to compound: 3
CNS SF-268 CL12014
  classification of cell line as Low(1), Medium(2) or High(3) sensitivity to compound: 2
CNS SF-295 CL12015
  classification of cell line as Low(1), Medium(2) or High(3) sensitivity to compound: 2

## Nc1ccn([C@@H]2O[C@H](CO)[C@@H](O)[C@@H]2O)c(=O)n1 [AraC]
  1 # of Low: 17
  2 # of Medium: 33
  3 # of High: 10
  classification of cell line as Low(1), Medium(2) or High(3) sensitivity to compound: 2 and 3 and 1
  sensitivity class NSCLC NCI-H23(I) CL1001: 3
  sensitivity class NSCLC NCI-H332M CL1017: 2
  sensitivity class NSCLC NCI-H460 CL1021: 3
  sensitivity class NSCLC NCI-H522 CL1003: 2
  sensitivity class Ovarian IGROV1 CL6010: 1
  sensitivity class Ovarian OVCAR-3 CL6001: 1
  sensitivity class Ovarian OVCAR-4 CL6002: 1
  sensitivity class Ovarian OVCAR-5 CL6003: 2
  sensitivity class Ovarian OVCAR-8 CL6005: 2
  sensitivity class Ovarian SK-OV-3 CL6011: 2
  sensitivity class Prostate DU-145 CL11003: 1
  sensitivity class Prostate PC-3(I) CL11001: 2
  sensitivity class Renal 786-O CL9018: 2
  sensitivity class Renal A498 CL9013: 2
  sensitivity class Renal ACHN CL9023: 2
  sensitivity class Renal CAKI-1 CL9015: 2
  sensitivity class Renal RXF-393 CL9016: 2
  sensitivity class Renal SN12C CL9008: 2
  sensitivity class Renal TK10 CL9024: 1
  sensitivity class Renal UO-31 CL9004: 2
  sensitivity class of the cell line to the compound (1 Low, 2 Medium, 3 High): 2 and 1 and 3

## O=NN(CCCl)C(=O)NCCCl [BCNU]
  1 # of Low: 13
  2 # of Medium: 37
  3 # of High: 10
  sensitivity class NSCLC NCI-H23(I) CL1001: 2
  sensitivity class NSCLC NCI-H332M CL1017: 1
  sensitivity class NSCLC NCI-H460 CL1021: 2
  sensitivity class NSCLC NCI-H522 CL1003: 3
  sensitivity class Ovarian IGROV1 CL6010: 2
  sensitivity class Ovarian OVCAR-3 CL6001: 2
  sensitivity class Ovarian OVCAR-4 CL6002: 2
  sensitivity class Ovarian OVCAR-5 CL6003: 1
  sensitivity class Ovarian OVCAR-8 CL6005: 2
  sensitivity class Ovarian SK-OV-3 CL6011: 1
  sensitivity class Prostate DU-145 CL11003: 1
  sensitivity class Prostate PC-3(I) CL11001: 2
  sensitivity class Renal 786-O CL9018: 3
  sensitivity class Renal A498 CL9013: 1
  sensitivity class Renal ACHN CL9023: 2
  sensitivity class Renal CAKI-1 CL9015: 2
  sensitivity class Renal RXF-393 CL9016: 2
  sensitivity class Renal SN12C CL9008: 2
  sensitivity class Renal TK10 CL9024: 2
  sensitivity class Renal UO-31 CL9004: 1
